In the NIST ThermoML archive (doi:10.1016/j.tca.2007.10.001):
Numbers after ± are expanded uncertainties.

Key:
[1] = Molar enthalpy of transition or fusion; conditions: Crystal
[2] = molar heat capacity at constant pressure; conditions: 101.33 kPa, Crystal
[3] = Crystal; DTA

Compound: c1cnc2c(c1)ccc1cccnc12 [1,10-phenanthroline]
- Molar enthalpy of transition or fusion [1]: 2.82 ± 0.884 kcal/mol
- molar heat capacity at constant pressure ([2]; 298.2 K): 115 ± 37 J/K/mol
- molar heat capacity at constant pressure ([2]; 300.2 K): 116 ± 37 J/K/mol
- molar heat capacity at constant pressure ([2]; 302.2 K): 117 ± 37 J/K/mol
- molar heat capacity at constant pressure ([2]; 304.2 K): 125 ± 40 J/K/mol
- molar heat capacity at constant pressure ([2]; 306.2 K): 127 ± 41 J/K/mol
- molar heat capacity at constant pressure ([2]; 308.2 K): 133 ± 43 J/K/mol
- molar heat capacity at constant pressure ([2]; 310.2 K): 140 ± 45 J/K/mol
- molar heat capacity at constant pressure ([2]; 312.2 K): 150 ± 48 J/K/mol
- molar heat capacity at constant pressure ([2]; 314.2 K): 156 ± 50 J/K/mol
- molar heat capacity at constant pressure ([2]; 316.2 K): 165 ± 53 J/K/mol
- molar heat capacity at constant pressure ([2]; 318.2 K): 175 ± 56 J/K/mol
- molar heat capacity at constant pressure ([2]; 320.2 K): 184 ± 59 J/K/mol
- molar heat capacity at constant pressure ([2]; 322.2 K): 192 ± 61 J/K/mol
- molar heat capacity at constant pressure ([2]; 324.2 K): 199 ± 64 J/K/mol
- molar heat capacity at constant pressure ([2]; 326.2 K): 206 ± 66 J/K/mol
- molar heat capacity at constant pressure ([2]; 328.2 K): 213 ± 68 J/K/mol
- molar heat capacity at constant pressure ([2]; 330.2 K): 221 ± 71 J/K/mol
- molar heat capacity at constant pressure ([2]; 332.2 K): 226 ± 72 J/K/mol
- molar heat capacity at constant pressure ([2]; 334.2 K): 235 ± 75 J/K/mol
- molar heat capacity at constant pressure ([2]; 336.2 K): 237 ± 76 J/K/mol
- molar heat capacity at constant pressure ([2]; 338.2 K): 245 ± 78 J/K/mol
- molar heat capacity at constant pressure ([2]; 340.2 K): 247 ± 79 J/K/mol
- molar heat capacity at constant pressure ([2]; 342.2 K): 253 ± 81 J/K/mol
- molar heat capacity at constant pressure ([2]; 344.2 K): 253 ± 81 J/K/mol
- molar heat capacity at constant pressure ([2]; 346.2 K): 256 ± 82 J/K/mol
- molar heat capacity at constant pressure ([2]; 348.2 K): 260 ± 83 J/K/mol
- molar heat capacity at constant pressure ([2]; 350.2 K): 263 ± 84 J/K/mol
- molar heat capacity at constant pressure ([2]; 352.2 K): 265 ± 85 J/K/mol
- molar heat capacity at constant pressure ([2]; 354.2 K): 270 ± 86 J/K/mol
- molar heat capacity at constant pressure ([2]; 356.2 K): 271 ± 87 J/K/mol
- molar heat capacity at constant pressure ([2]; 358.2 K): 276 ± 88 J/K/mol
- molar heat capacity at constant pressure ([2]; 360.2 K): 279 ± 89 J/K/mol
- Triple point temperature [3]: 391.1 ± 0.6 K

Compound: Cc1ccc2ccc3ccc(C)nc3c2n1 [2,9-dimethyl-1,10-phenanthroline]
- Molar enthalpy of transition or fusion [1]: 4.21 ± 1.2 kcal/mol
- molar heat capacity at constant pressure ([2]; 298.2 K): 253 ± 81 J/K/mol
- molar heat capacity at constant pressure ([2]; 303.2 K): 274 ± 88 J/K/mol
- molar heat capacity at constant pressure ([2]; 308.2 K): 292 ± 93 J/K/mol
- molar heat capacity at constant pressure ([2]; 313.2 K): 306 ± 98 J/K/mol
- molar heat capacity at constant pressure ([2]; 318.2 K): 321 ± 100 J/K/mol
- molar heat capacity at constant pressure ([2]; 323.2 K): 331 ± 110 J/K/mol
- molar heat capacity at constant pressure ([2]; 328.2 K): 345 ± 110 J/K/mol
- molar heat capacity at constant pressure ([2]; 333.2 K): 354 ± 110 J/K/mol
- molar heat capacity at constant pressure ([2]; 338.2 K): 361 ± 120 J/K/mol
- molar heat capacity at constant pressure ([2]; 343.2 K): 370 ± 120 J/K/mol
- molar heat capacity at constant pressure ([2]; 348.2 K): 373 ± 120 J/K/mol
- molar heat capacity at constant pressure ([2]; 353.2 K): 374 ± 120 J/K/mol
- molar heat capacity at constant pressure ([2]; 358.2 K): 383 ± 120 J/K/mol
- molar heat capacity at constant pressure ([2]; 363.2 K): 383 ± 120 J/K/mol
- molar heat capacity at constant pressure ([2]; 368.2 K): 387 ± 120 J/K/mol
- molar heat capacity at constant pressure ([2]; 373.2 K): 384 ± 120 J/K/mol
- molar heat capacity at constant pressure ([2]; 378.2 K): 386 ± 120 J/K/mol
- molar heat capacity at constant pressure ([2]; 383.2 K): 390 ± 120 J/K/mol
- molar heat capacity at constant pressure ([2]; 388.2 K): 386 ± 120 J/K/mol
- molar heat capacity at constant pressure ([2]; 393.2 K): 383 ± 120 J/K/mol
- Triple point temperature [3]: 435.9 ± 1 K
